Reference: US20100204146A1, “Treatment of Oestrogen Dependant Conditions in Pre-menopausal Women” (PregLem S.A., priority 2007, published 2010)

Tests used:
[1] = tested on: person with peritoneal and ovarian endometriosis; assay: Endometriosis patient treated with STS-I, then with added progestin; format: in vivo, human
Experimental: A nulliparous person was diagnosed with a moderate/severe peritoneal and ovarian endometriosis during a laparoscopy performed for chronic pelvic pain, dyspareunia and infertility. Despite careful debulking of the lesions during the laparoscopy, the symptoms persisted and medical treatment is indicated. A STS-I, E2MATE is administered at 1.0 mg/week.

[2] = tested on: female Cynomolgus monkeys (Macaca fascicularis); assay: 39-week intragastric study in female Cynomolgus monkeys: impact on ovarian cycle and function, microscopic status at necropsy; conditions: for Ovary: Absence of corpora lutea (% of animals) / Ovary: Absence of corpora lutea (no. of animals) / Ovary: Cyst (% of animals) / Ovary: Cyst (no. of animals) / Ovary: Increase in growing follicles (% of animals) / Ovary: Increase in growing follicles (no. of animals): 8 animals, after 39 weeks, necropsy; for menstrual cycle pattern: whole treatment period
Experimental: Three groups of eight female Cynomolgus monkeys (Macaca fascicularis) each were treated intragastrically over a period of approximately 39 weeks at daily doses of 0.2, 0.8 and 2.0 mg/kg of E2MATE using an application volume of 10 mL/kg. A fourth group (control) received an equivalent volume of the vehicle under the same experimental conditions. […] After 39 weeks of treatment, the microscopic status at necropsy was as follows:

metastatic breast cancer = assay: Metastatic breast cancer patient treated with STS-I with GnRH agonist maintained; format: in vivo, human; conditions: daily administration
Experimental: In a person, a metastatic breast cancer is progressing despite administration of aromatase inhibitor and a GnRH agonist. […] STX64, a STS-I from the coumate family of compound is administered on a daily basis.

[3] = molecular target: T1, sulfatase activity present in eutopic and ectopic endometrium (Homo sapiens, UniProt P08842); conditions: in vitro; cited from earlier work
T1 construct: abolish the sulfatase activity present in eutopic and ectopic endometrium; host or cells: eutopic and ectopic endometrium (tissue)
T1 sequence (P08842 22-583): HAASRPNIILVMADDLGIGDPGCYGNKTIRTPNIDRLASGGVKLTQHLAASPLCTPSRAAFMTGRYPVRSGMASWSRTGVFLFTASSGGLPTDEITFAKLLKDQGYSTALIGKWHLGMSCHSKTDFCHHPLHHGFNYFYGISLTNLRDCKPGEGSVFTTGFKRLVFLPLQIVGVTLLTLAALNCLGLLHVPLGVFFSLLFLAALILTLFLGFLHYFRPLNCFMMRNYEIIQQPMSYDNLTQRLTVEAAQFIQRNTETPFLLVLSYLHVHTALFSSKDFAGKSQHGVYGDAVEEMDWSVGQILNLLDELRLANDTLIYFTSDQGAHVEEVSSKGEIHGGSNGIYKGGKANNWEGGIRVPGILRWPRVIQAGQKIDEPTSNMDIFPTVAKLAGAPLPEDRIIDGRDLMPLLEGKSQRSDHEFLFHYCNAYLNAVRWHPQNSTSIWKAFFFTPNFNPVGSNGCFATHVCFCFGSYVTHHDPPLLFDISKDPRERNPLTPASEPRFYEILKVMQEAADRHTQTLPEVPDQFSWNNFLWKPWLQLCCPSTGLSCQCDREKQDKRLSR

[4] = E2MATE 1.0 mg/week associated with norgestrel 0.1 mg/day

## C[C@]12CC[C@@H]3c4ccc(OS(N)(=O)=O)cc4CC[C@H]3[C@@H]1CC[C@@H]2O [E2MATE, Estradiol sulfamate]
[1]; 1.0 mg/week, alone
  endometriosis symptoms: partially relieved
  serum estradiol (E2): fluctuating serum E2 in the hundred of pg range
  vaginal bleeding: irregular episodes of mild but painful vaginal bleeding
[1]; [4]
  patient's symptoms: further improvement
  serum estradiol levels and bleeding episode: reduction
[2]; 0.2 mg/kg daily, intragastric, treatment period
  animals became amenorrheic: 2/8
[2]; 0.2 mg/kg dose group
  Ovary: Absence of corpora lutea (% of animals): (87.5%)
  Ovary: Absence of corpora lutea (no. of animals): 7
  Ovary: Cyst (% of animals): (12.5%)
  Ovary: Cyst (no. of animals): 1
  Ovary: Increase in growing follicles (% of animals): (50%)
  Ovary: Increase in growing follicles (no. of animals): 4
[2]; 0.8 mg/kg daily, intragastric
  menstrual cycle pattern: persistent amenorrhea in most animals
[2]; 0.8 mg/kg dose group
  Ovary: Absence of corpora lutea (% of animals): (100%)
  Ovary: Absence of corpora lutea (no. of animals): 8
  Ovary: Cyst (% of animals): (12.5%)
  Ovary: Cyst (no. of animals): 1
  Ovary: Increase in growing follicles (% of animals): (12.5%)
  Ovary: Increase in growing follicles (no. of animals): 1
[2]; 2.0 mg/kg daily, intragastric
  menstrual cycle pattern: persistent amenorrhea in most animals
[2]; 4.0 mg/kg dose group
  Ovary: Absence of corpora lutea (% of animals): (100%)
  Ovary: Absence of corpora lutea (no. of animals): 8
  Ovary: Cyst (% of animals): (0%)
  Ovary: Cyst (no. of animals): 0
  Ovary: Increase in growing follicles (% of animals): (50%)
  Ovary: Increase in growing follicles (no. of animals): 4

## NS(=O)(=O)Oc1ccc2c3c(c(=O)oc2c1)CCCCC3 [STX64]
Metastatic breast cancer
  follicular development: no follicular development is recorded
[3]
  sulfatase activity in eutopic and ectopic endometrium: abolish
